From patent US20040102524A1, “Method of treatment” (priority 2001, published 2004)

System: uric acid levels
Assay: Clinical data for reduction of uric acid levels in human volunteers
Format: in vivo
Design: Mean uric acid 24 hr. after dose: unit not given here
Conditions: for mean uric acid blood level reduced by: 24 hours after administration vs baseline; for % at 24 hrs. (mean blood level of uric acid at 24 hours after administration as a percentage of the baseline level) / Mean uric acid 24 hr. after dose: oral tablets; for Mean uric acid 24 hr. after dose: plasma
Protocol: Test subjects were orally administered tablets containing N-propanesulfonyl-6-[N-(5-bromo-2-(cyclopropylmethoxy)benzyl)-N-ethylamino]pyridazine-3-carboxamide, or a matching placebo was administered orally as tablets, with 200 mL of distilled water. The subjects were directed to remain semi-recumbent for six hours after dosing. A 4.9 mL sample of blood was taken into a tube containing lithium heparin anticoagulant, and plasma was separated by centrifugation for the clinical chemistry analysis at the pretrial medical examinations, pre-dose, 6 hours and 24 hours after dosing on each trial day. Concentrations of the uric acid were determined by standard analytical techniques.
The listed percentages represent mean blood level of uric acid at 24 hours after administration of the test substance (active compound or placebo) as a percentage of the baseline uric acid level measured prior to administration. […] In particular at a dose of 400 mg the mean uric acid blood level is reduced by 29%. Doses of 800 mg and 1600 mg likewise reduce blood levels of uric acid by 33% and 42% respectively.

CCCS(=O)(=O)NC(=O)c1ccc(N(CC)Cc2cc(Br)ccc2OCC2CC2)nn1 [N-propanesulfonyl-6-[N-(5-bromo-2-(cyclopropylmethoxy)benzyl)-N-ethylamino]pyridazine-3-carboxamide]
mean uric acid blood level reduced by (dose of 400 mg): 29%
mean uric acid blood level reduced by (dose of 800 mg): 33%
mean uric acid blood level reduced by (dose of 1600 mg): 42%
% at 24 hrs. (mean blood level of uric acid at 24 hours after administration as a percentage of the baseline level) (dose 1 mg): 98.8%
Mean uric acid 24 hr. after dose (dose 1 mg, n=4): 280
% at 24 hrs. (mean blood level of uric acid at 24 hours after administration as a percentage of the baseline level) (dose 5 mg): 90.1%
Mean uric acid 24 hr. after dose (dose 5 mg, n=4): 245
% at 24 hrs. (mean blood level of uric acid at 24 hours after administration as a percentage of the baseline level) (dose 25 mg): 93.2%
Mean uric acid 24 hr. after dose (dose 25 mg, n=4): 237
% at 24 hrs. (mean blood level of uric acid at 24 hours after administration as a percentage of the baseline level) (dose 100 mg): 90.0%
Mean uric acid 24 hr. after dose (dose 100 mg, n=4): 286
% at 24 hrs. (mean blood level of uric acid at 24 hours after administration as a percentage of the baseline level) (dose 200 mg): 85.2%
Mean uric acid 24 hr. after dose (dose 200 mg, n=4): 268
% at 24 hrs. (mean blood level of uric acid at 24 hours after administration as a percentage of the baseline level) (dose 400 mg): 70.6%
Mean uric acid 24 hr. after dose (dose 400 mg, n=4): 242
% at 24 hrs. (mean blood level of uric acid at 24 hours after administration as a percentage of the baseline level) (dose 800 mg): 66.7%
Mean uric acid 24 hr. after dose (dose 800 mg, n=4): 237
% at 24 hrs. (mean blood level of uric acid at 24 hours after administration as a percentage of the baseline level) (dose 1600 mg): 57.6%
Mean uric acid 24 hr. after dose (dose 1600 mg, n=6): 168
